Results published in paper PMC5857911, “Inositol pyrophosphate synthesis by diphosphoinositol pentakisphosphate kinase-1 is regulated by phosphatidylinositol(4,5)bisphosphate” (Bioscience Reports, 2018).
Residue numbers refer to the chain shown, from its start. pIC50: −log10 of the molar value.

Legend:
Assay type in all cases: biochemical
PPIP5K1 [1] = target: T1, PPIP5K1 (Homo sapiens, UniProt Q6PFW1); test: InsP8 phosphatase assay with [3H]InsP8, HPLC, dose-response
T1 construct: full-length human PPIP5K1
T1 sequence (Q6PFW1 1-1433): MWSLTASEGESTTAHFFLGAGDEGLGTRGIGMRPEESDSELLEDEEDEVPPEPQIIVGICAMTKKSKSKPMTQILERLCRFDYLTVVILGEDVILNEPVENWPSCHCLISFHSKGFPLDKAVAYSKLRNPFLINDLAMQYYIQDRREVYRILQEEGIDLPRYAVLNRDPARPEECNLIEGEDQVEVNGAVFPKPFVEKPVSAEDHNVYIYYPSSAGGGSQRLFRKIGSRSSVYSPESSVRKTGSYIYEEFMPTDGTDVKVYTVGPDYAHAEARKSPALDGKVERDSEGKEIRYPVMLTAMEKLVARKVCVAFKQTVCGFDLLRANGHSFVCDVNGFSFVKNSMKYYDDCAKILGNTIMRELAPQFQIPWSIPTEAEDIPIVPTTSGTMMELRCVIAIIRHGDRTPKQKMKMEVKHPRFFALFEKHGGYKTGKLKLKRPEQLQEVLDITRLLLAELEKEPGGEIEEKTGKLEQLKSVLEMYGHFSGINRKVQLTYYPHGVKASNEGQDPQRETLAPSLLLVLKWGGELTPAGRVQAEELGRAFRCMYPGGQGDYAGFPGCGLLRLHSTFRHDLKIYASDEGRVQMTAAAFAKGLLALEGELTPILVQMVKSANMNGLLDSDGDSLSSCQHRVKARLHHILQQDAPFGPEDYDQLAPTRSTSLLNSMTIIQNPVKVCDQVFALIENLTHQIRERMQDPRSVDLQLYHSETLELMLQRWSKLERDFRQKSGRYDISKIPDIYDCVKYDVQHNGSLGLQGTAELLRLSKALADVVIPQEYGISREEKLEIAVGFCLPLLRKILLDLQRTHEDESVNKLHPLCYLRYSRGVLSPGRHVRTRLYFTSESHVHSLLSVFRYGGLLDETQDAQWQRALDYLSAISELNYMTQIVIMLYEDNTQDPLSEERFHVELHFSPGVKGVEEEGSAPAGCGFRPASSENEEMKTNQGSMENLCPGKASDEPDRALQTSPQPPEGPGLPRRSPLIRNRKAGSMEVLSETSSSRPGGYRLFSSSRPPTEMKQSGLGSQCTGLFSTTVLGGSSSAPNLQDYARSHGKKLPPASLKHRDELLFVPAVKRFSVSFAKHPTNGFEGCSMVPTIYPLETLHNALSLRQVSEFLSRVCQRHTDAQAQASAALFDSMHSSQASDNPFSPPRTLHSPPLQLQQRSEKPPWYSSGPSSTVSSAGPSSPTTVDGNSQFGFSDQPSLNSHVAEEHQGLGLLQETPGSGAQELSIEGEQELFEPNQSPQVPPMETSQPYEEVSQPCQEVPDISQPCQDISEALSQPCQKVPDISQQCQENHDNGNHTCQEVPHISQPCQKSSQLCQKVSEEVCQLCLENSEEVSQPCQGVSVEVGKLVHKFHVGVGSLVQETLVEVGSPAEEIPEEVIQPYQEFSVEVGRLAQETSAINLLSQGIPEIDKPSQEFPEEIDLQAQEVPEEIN

PPIP5K1 [2] = target: T1, PPIP5K1; test: phosphatase assay of purified recombinant enzyme, […] InsP8 with [3H]InsP8, HPLC
PPIP5K1 [3] = target: T1, PPIP5K1; test: kinase assay of purified recombinant enzyme with […]-[3H]InsP7, HPLC, first-order conditions
PPIP5K1 [4] = target: T2, PPIP5K1 (Homo sapiens, UniProt Q6PFW1, R399A); test: kinase assay of purified phosphatase-compromised mutant, […] h, HPLC
T2 construct: full-length human PPIP5K1
T2 sequence (Q6PFW1 1-1433 R399A): T1 sequence (Q6PFW1 1-1433) with R399A

Compound	pIC50 (PPIP5K1 [1])	also measured
CCCCCCCC(=O)OC[C@H](COP(=O)(O)O[C@H]1[C@H](O)[C@@H](OP(=O)(O)O)[C@H](OP(=O)(O)O)[C@@H](OP(=O)(O)O)[C@H]1O)OC(=O)CCCCCCC [C8-PtdIns(3,4,5)P3]	~4.46	
O=P(O)(O)O[C@@H]1[C@@H](OP(=O)(O)O)[C@H](OP(=O)(O)OP(=O)(O)O)[C@@H](OP(=O)(O)O)[C@H](OP(=O)(O)OP(=O)(O)O)[C@@H]1OP(=O)(O)O [InsP8]		phosphatase assay of purified recombinant enzyme, 1 μM InsP8 with [3H]InsP8, HPL (PPIP5K1 [2]): 7 ± 1 nmol/mg protein/min
CCCCCCCC(=O)OC[C@H](COP(=O)(O)O[C@@H]1[C@H](O)[C@H](O)[C@@H](OP(=O)(O)O)[C@H](OP(=O)(O)O)[C@H]1O)OC(=O)CCCCCCC [C8-PtdIns(4,5)P2]	~4.40	
CCCCCCCC(=O)OC[C@H](COP(=O)(O)O[C@H]1[C@H](O)[C@@H](O)[C@H](OP(=O)(O)O)[C@@H](OP(=O)(O)O)[C@H]1O)OC(=O)CCCCCCC [C8-PtdIns(3,4)P2]	~4.60	
O=P(O)(O)O[C@H]1[C@@H](OP(=O)(O)O)[C@H](OP(=O)(O)O)[C@@H](OP(=O)(O)OP(=O)(O)O)[C@H](OP(=O)(O)O)[C@H]1OP(=O)(O)O [5-InsP7]		kinase assay of purified recombinant enzyme with 5-[3H]InsP7, HPLC, first-order (PPIP5K1 [3]): 0.07 min⁻¹; % / ng protein (PPIP5K1 [4]): 6.9 ± 0.01 % / ng protein
